Drawing on patent US10821100B2, “Triazolone compounds as mPGES-1 inhibitors” (Glenmark Pharmaceuticals S.A., priority 2012, dated 2020), this text covers inhibition and IC50 for 23 compounds.

The target in the assay is T1, Recombinant human mPGES-1 (Homo sapiens, UniProt O14684).
T1 construct: made in house; host or cells: CHO cells (crude microsomal fractions)
T1 sequence (O14684 1-152): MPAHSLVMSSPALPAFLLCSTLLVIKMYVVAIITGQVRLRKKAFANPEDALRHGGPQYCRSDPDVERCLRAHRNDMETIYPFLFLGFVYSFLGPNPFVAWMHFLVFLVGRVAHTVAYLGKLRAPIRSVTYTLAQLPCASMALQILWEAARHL
As to the kind of experiment: In-vitro screening of mPGES-1 inhibitors (inhibition of PGE2 formation from PGH2, HTRF detection). The format is biochemical. As to conditions: mPGES-1 enzyme; for inhibition at 1 µM: 1 μM test compound, read-out: Percentage inhibition at 1 μM; for inhibition at 10 µM: 10 μM test compound, read-out: Percentage inhibition at 10 μM; for IC50: class symbols. In short, it runs like this:
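Crude CHO-expressed microsomes (40–60 μg/mL protein) preincubated 10 min with compound in 0.1 M potassium phosphate/2 mM EDTA containing 2.5 mM GSH, 0.5% DMSO final. PGH2 (15 μM) reacted 1 min, stopped with stannous chloride. PGE2 quantified by HTRF, IC50 from nonlinear regression of percent inhibition.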
(Time-resolved FRET reads energy transfer from a long-lived donor to a nearby acceptor.)

With `O=C(NCc1ccc(Cl)c(-n2nc(-c3ccc(C#Cc4ccc(C(F)(F)F)cc4Cl)cc3F)[nH]c2=O)c1)C1CC1` [Example-82, N-(4-Chloro-3-(3-(4-((2-chloro-4-(trifluoromethyl)phenyl)ethynyl)-2-fluorophenyl)-5-oxo-4,5-dihydro-1H-1,2,4-triazol-1-yl)benzyl)cyclopropanecarboxamide], the concentration for half-maximal inhibition (IC50) (usually the concentration that inhibits the measured activity by half) is less than 50 nM. For the setting “crude microsomal fractions”, the inhibition (as a rule, the percentage by which the read-out fell short of the control) at 1 µM came to 98.3% and the inhibition at 10 µM was 99%.
The corresponding values for `CC(C)C(=O)NCc1ccc(Cl)c(-n2nc(-c3ccc(C#CC(C)(C)C)cc3)[nH]c2=O)c1` [Example-143, N-(4-Chloro-3-(4,5-dihydro-3-(4-(3,3-dimethylbut-1-ynyl)phenyl)-5-oxo-1,2,4-triazol-1-yl)benzyl)isobutyramide] are less than 50 nM, 99.2% and 90.7%.
Take `O=C(Nc1cccc(C(F)(F)F)c1)c1ccc(-n2nc(-c3c(F)cccc3Cl)[nH]c2=O)cc1` [Example-31, 4-(3-(2-Chloro-6-fluorophenyl)-5-oxo-4,5-dihydro-1H-1,2,4-triazol-1-yl)-N-(3-(trifluoromethyl)phenyl)benzamide]: the concentration for half-maximal inhibition (IC50) was in the range of 50 to 100 nM. Where the note is “crude microsomal fractions”, the inhibition at 1 µM was found to be 96.9% and the inhibition at 10 µM came to 98.6%.
For the compound `CC(C)(C)C(=O)NCc1ccc(Cl)c(-n2nc(-c3ccc(Cl)cc3F)[nH]c2=O)c1F` [Example-90, N-(4-Chloro-3-(3-(4-chloro-2-fluorophenyl)-5-oxo-4,5-dihydro-1H-1,2,4-triazol-1-yl)-2-fluorobenzyl)pivalamide], the IC50 is more than 100 nM. Further, under “crude microsomal fractions”, the inhibition at 1 µM was determined as 81.7% and the inhibition at 10 µM stood at 97.2%.
`COc1cc(-n2nc(-c3c(C)cccc3Cl)[nH]c2=O)ccc1C(=O)Nc1cccc(C(F)F)c1` [Example-54, 4-(3-(2-Chloro-6-methylphenyl)-5-oxo-4,5-dihydro-1H-1,2,4-triazol-1-yl)-N-(3-(difluoromethyl)phenyl)-2-methoxybenzamide]: the 50% inhibitory concentration (IC50) lay in the range of 50 to 100 nM. Also, under “crude microsomal fractions”, the inhibition at 1 µM stood at 89.4% and the inhibition at 10 µM was found to be 97.5%.
With `O=C(Nc1cccc(C(F)(F)F)c1)c1ccc(-n2nc(-c3cc(CNC(=O)C4CC4)ccc3Cl)[nH]c2=O)cc1` [Example-72, 4-(3-(2-Chloro-5-(cyclopropanecarboxamidomethyl)phenyl)-5-oxo-4,5-dihydro-1H-1,2,4-triazol-1-yl)-N-(3-(trifluoromethyl)phenyl)benzamide], the IC50 is less than 50 nM. Moreover, the inhibition at 1 µM (crude microsomal fractions) worked out at 99.2%. The inhibition at 3 µM (3 μM test compound, crude microsomal fractions, read-out: Percentage inhibition at 3 μM) is 99%.
Turning to `CC(C)(C)C(=O)NCc1ccc(Cl)c(-n2nc(-c3ccc(C(F)(F)F)cc3)[nH]c2=O)c1` [Example-145, N-(4-Chloro-3-(3-(4-(trifluoromethyl)phenyl)-4,5-dihydro-5-oxo-1,2,4-triazol-1-yl)benzyl)pivalamide], the concentration for half-maximal inhibition (IC50) was less than 50 nM. Further, under “crude microsomal fractions”, the inhibition at 1 µM was determined as 94.2% and the inhibition at 10 µM amounted to 98.9%.
For the compound `O=C(NCc1ccc(Cl)c(-n2nc(-c3ccc(Cl)cc3F)[nH]c2=O)c1)C1CC1` [Example-91, N-(4-Chloro-3-(3-(4-chloro-2-fluorophenyl)-5-oxo-4,5-dihydro-1H-1,2,4-triazol-1-yl)benzyl)cyclopropanecarboxamide], where the note is “crude microsomal fractions”, the inhibition at 1 µM worked out at 66.2% and the inhibition at 10 µM was found to be 94.3%.
For the compound `COc1cc(-n2nc(-c3c(Cl)cccc3Cl)[nH]c2=O)ccc1-c1nc2cc(C(F)(F)F)ccc2[nH]1` [Example-65, 3-(2,6-Dichlorophenyl)-1-(3-methoxy-4-(5-(trifluoromethyl)-1H-benzo[d]imidazol-2-yl)phenyl)-1H-1,2,4-triazol-5(4H)-one], under “crude microsomal fractions”, the inhibition at 1 µM is 75.5% and the inhibition at 10 µM came to 94.5%.
On to `CC(C)(C)C(=O)NCc1ccc(Cl)c(-c2nn(-c3ccc(Cl)c(C(F)(F)F)c3)c(=O)[nH]2)c1F` [Example-174, N-(4-Chloro-3-(1-(4-chloro-3-(trifluoromethyl)phenyl)-4,5-dihydro-5-oxo-1H-1,2,4-triazol-3-yl)-2-fluorobenzyl)pivalamide], for which the IC50 was less than 50 nM. Also, where the note is “crude microsomal fractions”, the inhibition at 1 µM is 99.9% and the inhibition at 10 µM stood at 100%.
Regarding `COc1cc(-n2nc(-c3c(C)cccc3Cl)[nH]c2=O)ccc1C(=O)Nc1ccc(F)c(C(F)F)c1` [Example-53, 4-(3-(2-Chloro-6-methylphenyl)-5-oxo-4,5-dihydro-1H-1,2,4-triazol-1-yl)-N-(3-(difluoromethyl)-4-fluorophenyl)-2-methoxybenzamide], the IC50 is less than 50 nM. In addition, under “crude microsomal fractions”, the inhibition at 1 µM amounted to 82.7% and the inhibition at 10 µM is 97.9%.
On to `COc1cc(-n2nc(-c3c(F)cccc3Cl)[nH]c2=O)ccc1C(=O)Nc1ccc(F)c(C(F)(F)F)c1` [Example-33, 4-(3-(2-Chloro-6-fluorophenyl)-5-oxo-4,5-dihydro-1H-1,2,4-triazol-1-yl)-N-(4-fluoro-3-(trifluoromethyl)phenyl)-2-methoxybenzamide], for which the 50% inhibitory concentration (IC50) is less than 50 nM. Besides, where the note is “crude microsomal fractions”, the inhibition at 1 µM came to 89.4% and the inhibition at 10 µM was 96.8%.
As for `COc1cc(-n2nc(-c3c(F)cccc3Cl)[nH]c2=O)ccc1C(=O)NCc1ccccc1C(F)(F)F` [Example-25, 4-[3-(2-Chloro-6-fluorophenyl)-5-oxo-4,5-dihydro-1H-1,2,4-triazol-1-yl]-2-methoxy-N-[2-(trifluoromethyl)benzyl]benzamide], the IC50 is more than 100 nM. In addition, where the note is “crude microsomal fractions”, the inhibition at 1 µM turned out to be 74.4% and the inhibition at 10 µM is 88.9%.
`CC1(C)CCC(n2nc(-c3cc(CNC(=O)C(C)(C)C)c(F)cc3Cl)[nH]c2=O)CC1` [Example-125, N-(4-Chloro-2-fluoro-5-(4,5-dihydro-1-(4,4-dimethylcyclohexyl)-5-oxo-1H-1,2,4-triazol-3-yl)benzyl)pivalamide]: under “crude microsomal fractions”, the inhibition at 1 µM was 79.9% and the inhibition at 10 µM came out at 95%.
On the same counts, the results for `CCn1c(-c2c(Cl)cccc2Cl)nn(-c2ccc(C(=O)Nc3cccc(C(F)(F)F)c3)c(OC)c2)c1=O` [Example-70, 4-(3-(2,6-Dichlorophenyl)-4-ethyl-5-oxo-4,5-dihydro-1H-1,2,4-triazol-1-yl)-2-methoxy-N-(3-(trifluoromethyl)phenyl)benzamide] are 0.55% and 6.63%.
In the case of `CC(C)C(=O)NCc1ccc(Cl)c(-n2nc(-c3ccc(C#CC4CC4)c(F)c3)[nH]c2=O)c1` [Example-150, N-(4-Chloro-3-(3-(4-(2-cyclopropylethynyl)-3-fluorophenyl)-4,5-dihydro-5-oxo-1,2,4-triazol-1-yl)benzyl)isobutyramide], the half-inhibitory concentration (IC50) was less than 50 nM. Further, under “crude microsomal fractions”, the inhibition at 1 µM came to 98.4% and the inhibition at 10 µM is 99.5%.
Consider `COc1cc(-n2nc(-c3c(F)cccc3Cl)[nH]c2=O)ccc1C(=O)Nc1ccc(C)cc1F` [Example-39, 4-(3-(2-Chloro-6-fluorophenyl)-5-oxo-4,5-dihydro-1H-1,2,4-triazol-1-yl)-N-(2-fluoro-4-methylphenyl)-2-methoxybenzamide], for which the IC50 lay in the range of 50 to 100 nM. In addition, for the setting “crude microsomal fractions”, the inhibition at 1 µM amounted to 90.1% and the inhibition at 10 µM came to 96.4%.
On the same counts, the results for `O=c1[nH]c(-c2c(F)cccc2Cl)nn1-c1ccc(-c2cccc(OC(F)(F)F)c2)cc1` [Example-8, 5-(2-Chloro-6-fluorophenyl)-2-[3′-(trifluoromethoxy)biphenyl-4-yl]-2,4-dihydro-3H-1,2,4-triazol-3-one] are 50 to 100 nM, 84.9% and 87.2%.
The corresponding values for `CC1(C)CCC(n2nc(-c3cc(CNC(=O)C(C)(C)C)ccc3Cl)[nH]c2=O)CC1` [Example-118, N-(4-Chloro-3-(4,5-dihydro-1-(4,4-dimethylcyclohexyl)-5-oxo-1H-1,2,4-triazol-3-yl)benzyl)pivalamide] are more than 100 nM, 76.2% and 87.8%.
For the compound `CC(C)(C)n1nc(-c2cc(CNC(=O)C(F)(F)F)ccc2Cl)[nH]c1=O` [Example-120, N-(3-(1-tert-butyl-4,5-dihydro-5-oxo-1H-1,2,4-triazol-3-yl)-4-chlorobenzyl)-2,2,2-trifluoroacetamide], for the setting “crude microsomal fractions”, the inhibition at 1 µM was 11.4% and the inhibition at 10 µM turned out to be 46%.
`COc1cc(-c2nn(-c3c(Cl)cccc3Cl)c(=O)[nH]2)ccc1C(=O)Nc1cc(C(F)(F)F)ccc1F` [Example-178, 4-(1-(2,6-Dichlorophenyl)-4,5-dihydro-5-oxo-1H-1,2,4-triazol-3-yl)-N-(2-fluoro-5-(trifluoromethyl)phenyl)-2-methoxybenzamide]: where the note is “crude microsomal fractions”, the inhibition at 1 µM was 42.7% and the inhibition at 10 µM is 91.5%.
With `COc1cc(-n2nc(-c3c(F)cccc3Cl)[nH]c2=O)ccc1C#Cc1cc(Cl)ccc1Cl` [Example-59, 3-(2-Chloro-6-fluorophenyl)-1-(4-((2,5-dichlorophenyl)ethynyl)-3-methoxyphenyl)-1H-1,2,4-triazol-5(4H)-one], the 50% inhibitory concentration (IC50) was less than 50 nM. Also, for the setting “crude microsomal fractions”, the inhibition at 1 µM worked out at 93.9% and the inhibition at 10 µM stood at 96.8%.
Consider `CC(C)(C)C(=O)NCc1ccc(Cl)c(-c2nn(C3CCCCC3)c(=O)[nH]2)c1F` [Example-103, N-(4-Chloro-3-(1-cyclohexyl-5-oxo-4,5-dihydro-1H-1,2,4-triazol-3-yl)-2-fluorobenzyl)pivalamide], for which, under “crude microsomal fractions”, the inhibition at 1 µM was 19.9% and the inhibition at 10 µM is 51.1%.
